Results from PMC3763632, “Radiosynthesis and Radiotracer Properties of a 7-(2-[^18F]Fluoroethoxy)-6-methoxypyrrolidinylquinazoline for Imaging of Phosphodiesterase 10A with PET” (Pharmaceuticals, 2012).
pKd: −log10 of the molar value. Several values for one entry are separate records, joined by “and”; a condition that tells them apart may be missing. Equal values may be shown once.

How the values were obtained:
[1] = Chemical stability in vitro; type: physicochemical; details: for native [18F]IV remaining intact: up to 1.5 h
Protocol: Furthermore, the chemical stability of [^18F]IV in vitro under physiological conditions was investigated. […] For formulation and storage, radioligand stability in acetonitrile (98%, 1 h, 80 °C) and in ethanol (98%, 1 h, 80 °C; ≥99%, 1.5 h, 40 °C) was proven.

PDE10A [2] = molecular target: T1, PDE10A (Homo sapiens, UniProt Q9Y233); assay: Homologous competitive binding on membrane homogenates of PDE10A-transfected SF21 cells
T1 construct: purchased Biocrea GmbH, Radebeul, Germany; host or cells: SF21 insect cells (PDE10A-transfected; baculovirus system is mentioned)
T1 sequence (Q9Y233 whole entry, species assumed): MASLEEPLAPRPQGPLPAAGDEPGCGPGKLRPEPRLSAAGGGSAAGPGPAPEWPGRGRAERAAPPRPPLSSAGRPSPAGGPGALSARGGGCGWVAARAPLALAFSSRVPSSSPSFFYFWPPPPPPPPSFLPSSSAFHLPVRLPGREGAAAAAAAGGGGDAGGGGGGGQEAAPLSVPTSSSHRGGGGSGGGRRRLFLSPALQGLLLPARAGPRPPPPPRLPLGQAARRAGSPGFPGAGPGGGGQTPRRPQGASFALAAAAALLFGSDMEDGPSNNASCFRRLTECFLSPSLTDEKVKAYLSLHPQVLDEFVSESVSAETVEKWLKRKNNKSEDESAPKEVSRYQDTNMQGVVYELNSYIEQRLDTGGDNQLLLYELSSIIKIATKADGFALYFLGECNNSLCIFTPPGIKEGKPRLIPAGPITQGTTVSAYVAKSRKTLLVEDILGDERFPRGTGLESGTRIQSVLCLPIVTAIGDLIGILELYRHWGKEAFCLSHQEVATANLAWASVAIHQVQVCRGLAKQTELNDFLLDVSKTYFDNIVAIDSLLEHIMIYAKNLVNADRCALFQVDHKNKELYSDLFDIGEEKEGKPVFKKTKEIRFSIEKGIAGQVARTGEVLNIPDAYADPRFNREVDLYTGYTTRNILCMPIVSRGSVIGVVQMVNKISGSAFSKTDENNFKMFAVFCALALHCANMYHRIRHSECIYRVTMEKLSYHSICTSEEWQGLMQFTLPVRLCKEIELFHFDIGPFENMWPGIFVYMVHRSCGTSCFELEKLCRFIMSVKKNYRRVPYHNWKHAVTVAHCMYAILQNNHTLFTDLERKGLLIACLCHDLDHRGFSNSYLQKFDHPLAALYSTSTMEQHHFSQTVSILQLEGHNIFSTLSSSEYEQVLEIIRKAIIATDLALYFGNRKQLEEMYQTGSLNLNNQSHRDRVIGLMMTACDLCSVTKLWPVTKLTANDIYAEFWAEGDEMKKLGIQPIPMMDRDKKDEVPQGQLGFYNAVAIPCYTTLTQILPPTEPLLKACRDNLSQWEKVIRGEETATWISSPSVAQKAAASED
Protocol: The dissociation constant KD of [^18F]IV was determined in homologous competitive binding experiments by nonlinear regression analysis. Cell membrane homogenates from PDE10A-transfected SF21 cells (100 µg protein/mL incubation volume) were incubated with solutions of six concentrations of IV (working concentration 10 pM–[…]), each spiked with a fixed concentration of [^18F]IV (working concentration 0.05–0.1 nM).
Crude membrane homogenates isolated from PDE10A-transfected SF21 cells were obtained from Biocrea GmbH, Radebeul, Germany. For competitive radioligand displacement experiments (n = 2), the membrane preparations were diluted with incubation buffer (50 mM Tris-HCl, pH 7.4 at room temperature, 5 mM MgCl2) and re-homogenized by passing through a 27-gauge needle. The protein (100 µg) was incubated with 0.05–0.1 nM of [^18F]IV and different concentrations of IV (10 pM–1 µM), diluted from a 10 mM stock in DMSO, at a final volume of 1 mL. Nonspecific binding was determined in the presence of 10 µM of I, and control incubation was carried out accordingly using crude membrane preparations obtained from non-transfected SF21 cells.
Incubation at room temperature was terminated after 120 min by rapid filtration (Brandel 48-channel harvester; Biomedical Research and Development Lab. Inc., Gaithersburg, MD, USA) on Whatman GF/B glass-fiber filters, pre-soaked for 90 min in 0.3% polyethylenimine (Sigma, Deisenhofen, Germany), followed by washing four times with 4 mL of ice-cold wash buffer (50 mM Tris-HCl, pH 7.4 at 4 °C). Filter-bound radioactivity was quantified using a calibrated γ-counter (Wallac WIZARD, Perkin Elmer, Waltham, MA, USA).
Each experiment was carried out in triplicate. The binding parameter IC50 was estimated using iterative non-linear curve fitting. KD of [^18F]IV was estimated directly from homologous competition curve with KD = IC50-[radioligand] as well as from the respective saturation isotherm by nonlinear regression analysis.

PDE10A [3] = molecular target: T2, PDE10A (Rattus norvegicus, UniProt Q9QYJ6); assay: In vitro autoradiography on sagittal rat brain slices; type: binding; details: 25 nM [18F]IV
T2 construct: Frozen sagittal brain sections (12 μm) obtained from female SPRD rats (8–10 weeks); from tissue; host or cells: rat brain sections (female SPRD rats)
T2 sequence (Q9QYJ6 1-794): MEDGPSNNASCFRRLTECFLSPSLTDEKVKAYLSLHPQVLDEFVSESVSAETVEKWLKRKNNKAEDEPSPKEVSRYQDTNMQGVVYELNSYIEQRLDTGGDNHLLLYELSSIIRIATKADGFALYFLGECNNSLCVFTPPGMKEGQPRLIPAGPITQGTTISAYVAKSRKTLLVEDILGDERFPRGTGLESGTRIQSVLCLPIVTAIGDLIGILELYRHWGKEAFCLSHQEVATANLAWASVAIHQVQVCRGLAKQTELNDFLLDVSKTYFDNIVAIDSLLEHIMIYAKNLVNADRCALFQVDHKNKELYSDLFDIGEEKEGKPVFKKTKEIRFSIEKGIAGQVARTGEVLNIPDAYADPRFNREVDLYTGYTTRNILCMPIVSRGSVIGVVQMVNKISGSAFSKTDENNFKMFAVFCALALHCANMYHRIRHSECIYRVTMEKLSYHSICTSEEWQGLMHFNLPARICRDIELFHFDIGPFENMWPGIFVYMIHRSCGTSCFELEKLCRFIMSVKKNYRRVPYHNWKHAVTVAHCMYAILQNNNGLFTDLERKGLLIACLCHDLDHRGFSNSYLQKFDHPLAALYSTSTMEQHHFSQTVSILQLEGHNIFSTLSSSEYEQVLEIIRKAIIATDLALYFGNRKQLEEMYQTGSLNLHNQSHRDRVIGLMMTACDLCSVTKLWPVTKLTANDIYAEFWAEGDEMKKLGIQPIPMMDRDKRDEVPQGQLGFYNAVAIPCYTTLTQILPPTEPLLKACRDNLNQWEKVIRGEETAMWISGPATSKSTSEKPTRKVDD
Excerpt: Figure 3 Representative color-coded autoradiographic images of sagittal rat brain slices. […] CP, caudate putamen; NA, nucleus accumbens; OT, olfactory tubercle; Th, thalamus; Hi, hippocampus; SN, substantia nigra; Cb, cerebellum; Co, cortex; OB, olfactory bulb; PN, pontine nuclei.
This pattern corresponds with the immunohistochemical localization of PDE10A in rat brain described in Seeger et al..
Therefore, species-specific patterns of PDE expression have to be considered in the development of PDE10A targeting PET ligands based on the herein reported quinazoline structures. […]
Frozen sagittal brain sections (12 μm) obtained from female SPRD rats (8–10 weeks) were thawed, dried in a stream of cold air, preincubated for 20 min with 50 mM TRIS-HCl, pH 7.4, at room temperature, and dried again. […] After incubation, sections were washed twice for 2 min with 50 mM TRIS-HCl, pH 7.4 at 4 °C, dipped briefly in ice-cold deionized water (5 s), dried in a stream of cold air, and exposed for 17 h to ^18F-sensitive storage phosphor screens, which were analyzed using the BAS-1800 II system (see above).

**Q.** Which “native [18F]IV remaining intact” value ([1]; 0.01 M TRIS-HCl buffer (pH 7.4 at 21 °C), 40 °C) does the source give for COc1cc2c(N3CC[C@@H](Oc4cnc5ccccc5n4)C3)ncnc2cc1OCC[18F] [[^18F]IV, (R)-7-(2-[^18F]Fluoroethoxy)-6-methoxy-4-(3-(quinoxalin-2-yloxy)pyrrolidin-1-yl)quinazoline] here?
**A.** ≥ 99%

**Q.** And the “native [18F]IV remaining intact” value ([1]; 0.9% sodium chloride solution (pH 7.2), 40 °C, radio-TLC)?
**A.** ≥ 99%

**Q.** And the radioligand stability ([1]; acetonitrile, 1 h, 80 °C)?
**A.** 98%

**Q.** What about the radioligand stability ([1]; ethanol, 1 h, 80 °C) of the same compound?
**A.** 98%

**Q.** And the radioligand stability ([1]; ethanol, 1.5 h, 40 °C)?
**A.** ≥ 99%

**Q.** What about the “native [18F]IV remaining intact” value ([1]; physiological phosphate-saline (pH 7.2), 40 °C) of the same compound?
**A.** 97%

**Q.** What about the pKd (PDE10A [2]; mean, n = 2, calculated from homologous competition) of the same compound?
**A.** 7.85 and ~7.85

**Q.** What about the pKd (PDE10A [2]; single experiments (n = 2)) of the same compound?
**A.** 7.80 and 7.94

**Q.** What about the “binding of [18F]IV on rat brain slices, co-incubation with IV” value (PDE10A [3]; 10 μM IV, 60 min) of the same compound?
**A.** saturable binding

**Q.** And the “inhibition of [18F]IV binding on rat brain slices by MP-10” value (PDE10A [3]; 10 μM MP-10, 60 min)?
**A.** not completely inhibited
